# Test results as given in patent US20260125356A1, “TREATMENT OF LEISHMANIASIS” (THE UNIVERSITY OF DURHAM, priority 2022, published 2026).
# Like-named read-outs stand apart in the source and are kept apart here.
# Tests used:
# T. cruzi epimastigotes = assay: T. cruzi epimastigote dose response assay; format: cell-based; conditions: Trypanosoma cruzi, read-out: EC50 (T. cruzi)/μM
# Kinetic solubility = conditions: kinetic from dmso stock
# Source text: All chemicals and solvents were sourced from commercial suppliers. Buffers were made up using purified water from a MilliQ® water purification system. Biorelevant buffers (FESSIF, FASSIF and FASSGF) were purchased from Biorelevant and made up according to manufacturer's instructions. 15% FBS (heat inactivated, South American origin, ThermoFisher scientific) in PBS (Fisher Scientific) was filter sterilised (0.22 μm Fisherbrand™ Sterile PES Syringe Filter, Fisher Scientific) before use. Sodium taurocholate was purchased from Merck.
# λmax was determined for each compound from the UV-Vis absorption spectrum of a 200 LIM compound solution in buffer of interest using a Varian Cary® 100 UV-Vis Spectrophotometer. A calibration curve of λmax VS concentration was obtained by serial dilution of compound from 200 μM in the buffer of interest, correcting for background buffer absorption. For each sample, a DMSO solution of compound was incubated in buffer of interest (<5% DMSO) for 2 hrs at RT. The solution was filtered (0.22 μm Fisherbrand™ Sterile PES Syringe Filter, Fisher Scientific) or centrifuged (14,500 rpm, 10 min) to remove undissolved debris and the supernatant was removed and diluted as required. The corrected UV absorption of the supernatant at Amax Was measured using a Varian Cary® 100 UV-Vis Spectrophotometer and compared to the calibration curve to determine compound solubility.
# [1] = test system: L. donovani promastigotes; assay: L. donovani promastigote dose response assay (resazurin); format: cell-based; conditions: Leishmania donovani, read-out: EC50 (L. don)/μM
# L. major promastigotes = assay: L. major promastigote dose response assay (alamarBlue/resazurin); format: cell-based; conditions: Leishmania major, 48 h, 44 hrs + 4 hrs alamarBlue/resazurin, 26° C.
# Description: Using a standard alamarBlue™ assay, activity and selectivity were assessed using L. major promastigotes and HepG2 cells, respectively.
# All parasite and human cell cultures were grown and manipulated following biosafety level 2 instructions under sterile conditions. L. major FV1, L. amazonensis (MHOM/Br/75/JOSEFA), L. donovani BOB (derived from MHOM/SD/62/1S-CL2D), T. brucei (90-13, 427 strain) and T. cruzi (Dm28c) were used throughout.
# All steps were carried out under sterile conditions. Frozen stocks of the relevant Leishmania promastigote species were thawed rapidly and added to Schneider's media. Promastigotes were grown at 26° C. in Nunc EasYFlask 25 cm^2 Nunclon Delta Surface (ThermoScientific) and frozen stocks were prepared on low passage cultures (p2-4) by pelleting the cells by centrifugation and resuspending in Schneider's media with 10% DMSO. The cultures were aliquoted into cryovials (Starlab) and cooled slowly to −150° C. for long term storage.
# All steps were carried out under sterile conditions. […] Cycloheximide or amphotericin B were used as positive controls and 2% DMSO was used as a negative control. alamarBlue® (ThermoFisher scientific) or resazurin solution was added to each well and incubated for a further 4 hrs at 26° C. Cell-viability was determined using a BioTek™ FLx800 microplate reader with Gen5® 1.08 data analysis software (BioTek) by monitoring fluorescence emission (λex 560/λem 590 nm). Dose response curves were fitted using sigmoidal regression analysis (GraphPad Prism 8 software) and used to calculate EC50 values.
# [2] = test system: L. amazonensis promastigotes; assay: L. amazonensis promastigote dose response assay (alamarBlue/resazurin); format: cell-based; conditions: Leishmania amazonensis, 48 h, 44 hrs + 4 hrs alamarBlue/resazurin, 26° C., read-out: EC50 (L. amaz)/μM
# [3] = test system: T. brucei bloodstream trypomastigotes; assay: T. brucei bloodstream trypomastigote dose response assay; format: cell-based; conditions: Trypanosoma brucei, read-out: EC50 (T. brucei)/μM
# visceral leishmaniasis = assay: In vivo efficacy against experimental visceral leishmaniasis; conditions: single dose 10 mg/kg, BALB/c mice
# Source text: FIG. 9 evaluation of efficacy against visceral leishmaniasis in BALB/c mice in (A) the liver and (B) the spleen through Leishman donovani units (LDU) (n=4);
# FIG. 10 evaluation of efficacy against visceral leishmaniasis in BALB/c mice in bone marrow (n=4);
# FIG. 11 evaluation of efficacy against visceral leishmaniasis in BALB/c mice in (A) the liver and (B) the spleen through Limiting Dilution Assay (LDA) (n=4);
# Mice were infected with 2×10^7 promastigotes and kept for 2 months. After 2 months mice were treated with a single dose of phosphate-buffered saline (PBS), an empty liposome formulation (E.Lip), 10 mg/kg of body weight of Drug 3R, 10 mg/kg of body weight of compound 53 (identified in the Figures as drug 10), a liposome composition comprising 10 mg/kg of body weight of Drug 3R (Lip Drug 3R) or a liposome composition comprising 10 mg/kg of body weight of compound 53 (Lip Drug 10). […] The mice were then kept for one month and then sacrificed. Infection in liver and spleen was determined through LDU and LDA (FIGS. 9 and 11), infection in bone marrow was determined by counting amastigotes/1000 cells (FIG. 10).
# Liposomal compositions were prepared by incorporation of an active compound into the lipid bilayer of SA-bearing choline liposome (lipid ratio, 7:2). […]
# ΔrfaC mutant E. coli = assay: Antibacterial MIC/growth assay, ΔrfaC mutant E. coli; format: cell-based; conditions: 7.8 to 500 μM, 16 hours at 37° C.
# Description: (§1) DMSO was used as a solvent control at a maximum final concentration of 10% (a greater percentage than would be achieved using the compounds at the concentrations in question). Plates were incubated at 37° C. with shaking for 16 hours before measuring absorbance at 600 nm. These values were then used to calculate percentage growth at each dilution of compound in comparison to growth in the absence of compound. The following day, the contents of each well were resuspended using a multichannel pipette, and 5 μl from each well was then applied to LB agar plates. These were incubated at 30° C. in a stationary incubator for 16 hours before imaging.
# [4] = test system: L. amazonensis intracellular amastigotes; assay: Killing of intracellular amastigotes in infected peritoneal macrophages; format: cell-based; conditions: Leishmania amazonensis, Peritoneal macrophage, treated 48 h, read-out: EC50 (amastigote)
# Description: Peritoneal macrophages were plated at 2×10^5/well in 24 well-plate onto circular glass coverslips with medium RPMI+10% HIFCS. After 24 h, macrophages were infected with L. amazonensis (1:10) and cultured at 37″C for 4 h and washed to remove non internalized amastigotes. At 24 h post infection, cells were treated with serial dilutions of compound 53 or Pentostam for 48 h at 37° C. in medium RPMI+5% HIFCS. Afterwards, cells were stained with Rapid Panoptic and the number of intracellular amastigotes in 100 macrophages was counted. EC50 values were calculated by non-linear regression. Means±SD (n=2);
# The ability of compound 53 to kill intracellular amastigotes for cells infected with L. amazonensis was assessed and the cytotoxicity of the compound was investigated. The results are shown in FIGS. 6 to 8 and Table 8 below.
# L. amazonensis-GFP = assay: In vivo intralesional treatment of L. amazonensis-GFP (mouse ear); conditions: 0.4 mg in 10 μL PBS, once a week for five weeks
# Description: FIG. 12 evaluation of the parasitic load of intralesional treatment of L. amazonensis-GFP (mouse ear) after treatment with PBS, glucantime, compound 53 (VJL), clemastine fumarate (CF) or clemastine fumarate in a polymeric nanoparticle (NP-CF);
# Mice were infected with L. amazonensis and were then treated intralesionally (IL) with five doses of 10 μL PBS only (control) or 10 μL of PBS containing 0.4 mg of glucantime, compound 53 (VJL), clemastine fumarate (CF) or clemastine fumarate in a polymeric nanoparticle (NP-CF). The mice were treated once a week for five weeks.
# S. aureus (FDA209P) = assay: Antibacterial MIC/growth assay, S. aureus; format: cell-based; conditions: 16 hours at 37° C., absorbance 600 nm
# Description: as §1
# [5] = test system: wild-type E. coli (BW25113); assay: Antibacterial MIC/growth assay, wild-type E. coli; format: cell-based; conditions: 7.8 to 500 μM, 16 hours at 37° C.
# Description: as §1
# [6] = Cytotoxicity against macrophages (resazurin); format: cell-based; conditions: mouse, bone marrow-derived macrophages (BMDM), read-out: CC50 (macrophage)
# Description: Mouse bone marrow-derived macrophages (BMDM) were plated in 96 well-plate at 1×10^5/well with medium RPMI+10% HIFCS. After 24 h, compound 53 and Pentostam were added at the indicated concentrations, and cells cultured for further 48 h with medium RPMI+5% HIFCS. […] Pentostam CC50 was from curve regression extrapolation. Means±SD (n=5);
# The selectivity index (SI) was calculated by dividing the half maximal cytotoxic concentration (CC50) by the half maximal effective concentration (EC50). CC50 was extrapolated for pentostam.
# [7] = FASSGF, fassgf or other biorelevant
Structure (SMILES),"EC50 (T. cruzi epimastigotes; epimastigotes, 72 hours at 28° C., counted) [µM]",solubility at 2 h (Kinetic solubility; [7]) [µM],solubility at 2 h (Kinetic solubility; FASSIF) [µM],solubility at 2 h (Kinetic solubility; FESSIF) [µM],"solubility at 2 h (Kinetic solubility; PBS, aqueous buffer) [µM]","EC50 ([1]; promastigotes, 72 hrs at 26° C., resazurin) [µM]",EC50 (L. major promastigotes) [µM],EC50 [2] [µM],"EC50 ([3]; bloodstream trypomastigotes, 48 hrs, CellTiter Blue) [µM]",EC50 (T. cruzi epimastigotes; 72 h) [µM],"antileishmanial effect in vivo (liver, spleen, bone marrow infection) (visceral leishmaniasis; compound alone)","antileishmanial effect in vivo (liver, spleen, bone marrow infection), liposomal formulation (visceral leishmaniasis; delivered (iv) in a liposomal formulation)",EC50 ([1]; 72 h) [µM],inhibition of growth of ΔrfaC mutant E. coli (ΔrfaC mutant E. coli),EC50 [4] [µg/mL],parasitic load after intralesional treatment (L. amazonensis-GFP),inhibition of growth of S. aureus (S. aureus (FDA209P)),inhibition of growth of wild-type E. coli [5],EC50 ([3]; 48 h) [µM],CC50 at 48 h [6] [µg/mL]
"CNC(=O)c1ccc(OCCN2CCOCC2)cc1NC(=O)c1ccc([N+](=O)[O-])s1 [Compound 52, N-[2-(methylcarbamoyl)-5-[2″-(morpholin-4″-yl)ethoxy]phenyl]-5′-nitrothiophene-2′-carboxamide]",13 ± 1,> 8000,148,1870,19.3,0.134,0.44,0.27,0.78 ± 0.4,–,–,–,–,–,–,–,–,–,–,–
"CNC(=O)c1ccc(OCCCN2CCOCC2)cc1NC(=O)c1ccc([N+](=O)[O-])s1 [Compound 53, N-[2-(methylcarbamoyl)-5-[3″-(morpholin-4′″-yl)propoxy]phenyl]-5′-nitrothiophene-2′-carboxamide]",–,> 8000,359,4700,29,–,–,–,–,3.8 ± 0.5,reasonable antileishmanial effect,very effective clearance,0.044,some reasonable activity,0.6 ± 0.2,effective treatment,effective at inhibiting the bacteria at low concentrations,little effect,0.29 ± 0.1,16 ± 1
